Reference: patent US9872919B2, “Prodrugs for selective anticancer therapy” (THE RESEARCH FOUNDATION FOR THE STATE UNIVERSITY OF NEW YORK, priority 2012, dated 2018)

Experiments:
[1] = system: HT29 xenograft tumor, muscle and kidney; assay: Immunological detection of Puro-labeled proteins in tissues of HT29 xenograft mice; assay type: in vivo; details: 150 mg/kg/dose daily intraperitoneal for 3 d
Procedure: FIG. 29. In vivo anticancer efficacy of Boc-KAc-Puro. (a) Tumor growth in HCT116 xenograft model. Animals were treated with acidified saline control or Boc-KAc-Puro (50 or 150 mg/kg). Values are mean±s.d. (n=5 mice per group). ***P<0.001 compared to the control group. P=0.000716 (50 mg/kg), P=0.000349 (150 mg/kg) at 10 d. (b) Body weight change during the treatment in a was monitored as a sign of general animal health. Values are mean±s.d. (c) Tumor growth in HT29 xenograft model. Animals were treated with acidified saline control or Boc-KAc-Puro (150 mg/kg). Values are mean±s.d. (n=5 mice per group). ***P<0.001 compared to the control group. P=0.000514 (150 mg/kg) at 10 d. (d) Body weight change during the treatment in c was monitored as a sign of general animal health. Values are mean±s.d. (e) Levels of Puro-incorporated proteins were monitored by immunoblotting. […]
Cultured cells or tissue samples were sonicated in RIPA lysis buffer (1% NP-40, 0.1% SDS, 50 mM Tris-HCl pH 7.4, 150 mM NaCl, 0.5% sodium deoxycholate, 1 mM EDTA) supplemented with PMSF and protease inhibitor cocktail (Roche) on ice followed by clarification. […] Proteins of interest were detected with anti-mouse secondary antibody by chemiluminescence (ECL Kit, GE Healthcare Life Sciences). […]

[2] = system: HCT116, HT29, CCD841-CoN and Caco-2 cells; assay: Immunological detection of Puro-labeled proteins in cells; assay type: cell-based, human
Procedure: FIG. 27. Levels of Puro-incorporated proteins in the cells were monitored by immunoblotting. Indicated cell lines were treated either with vehicle control DMSO or Boc-KAc-Puro (16.9 μM) in the presence or absence of TSA (0.5 μM) for 20 h, followed by preparation of cell lysates. The lower panel (anti-α-Tubulin) serves as a loading control.
FIG. 28. Levels of Puro-incorporated proteins in the cells were monitored by immunoblotting. Indicated cell lines were treated either with vehicle control DMSO or Puro (2.1 μM) in the presence or absence of TSA (0.5 μM) for 16 h, followed by preparation of cell lysates. […] The lower panel (anti-α-Tubulin) serves as a loading control.
Cultured cells or tissue samples were sonicated in RIPA lysis buffer (1% NP-40, 0.1% SDS, 50 mM Tris-HCl pH 7.4, 150 mM NaCl, 0.5% sodium deoxycholate, 1 mM EDTA) supplemented with PMSF and protease inhibitor cocktail (Roche) on ice followed by clarification. Protein lysates were separated on sodium dodecyl sulfate-polyacrylamide gels and transferred onto nitrocellulose membranes (Whatman). The primary antibodies used were anti-puromycin (3RH11, KeraFAST) and anti-α-tubulin (Sigma-Aldrich). Proteins of interest were detected with anti-mouse secondary antibody by chemiluminescence (ECL Kit, GE Healthcare Life Sciences).

[3] = system: non-malignant Caco-2 cells; assay: Cell number determination, Caco-2; assay type: cell-based, human; details: 54 μM, 5 d
Procedure: FIG. 9. The colon cancer cell lines were grown for 5 d either with vehicle control DMSO (gray symbols) or 54 μM BKAc-Puro (red and blue symbols), and cell number was determined at the indicated time points.
(§1) Cell number was determined by cell counting using improved Neubauer hemacytometer. Cell viability was calculated as the number of viable cells divided by the total number of cells using Trypan Blue Stain (Invitrogen) to distinguish non-viable cells. Data were obtained from duplicated samples with quadruplicate measurements. MTS based cell viability assay was performed using CellTiter 96 Aqueous Cell Proliferation Assay (Promega) according to the manufacturer's instruction. Either 1 μl of DMSO alone or variable concentrations of BKAc-Puro or Puro in DMSO were added to the cell lines seeded at 5×10^4 cells per well in 96-well tissue culture plates in 100 μl of the growth medium, followed by 3-5 d incubation at 37° C. with 5% CO2 atmosphere. […] After additional 2-3 h incubation, the absorbance of the formazan at 490 nm was measured by the microplate reader. […] Determination of non-viable cells using PI staining was performed by adding 1 μg/ml of PI solution (Sigma) to the cell culture, prior to the examination under fluorescence microscopy (Axiovert 3, Carl Zeiss) through a×32 objective equipped with a digital imaging processor (Infinity 3, Lumenera).

[4] = system: HCT116 xenograft tumors; assay type: in vivo
Procedure: FIG. 29. In vivo anticancer efficacy of Boc-KAc-Puro. (a) Tumor growth in HCT116 xenograft model. Animals were treated with acidified saline control or Boc-KAc-Puro (50 or 150 mg/kg). Values are mean±s.d. (n=5 mice per group). ***P<0.001 compared to the control group. P=0.000716 (50 mg/kg), P=0.000349 (150 mg/kg) at 10 d. (b) Body weight change during the treatment in a was monitored as a sign of general animal health. Values are mean±s.d. (c) Tumor growth in HT29 xenograft model. Animals were treated with acidified saline control or Boc-KAc-Puro (150 mg/kg). Values are mean±s.d. (n=5 mice per group). ***P<0.001 compared to the control group. P=0.000514 (150 mg/kg) at 10 d. (d) Body weight change during the treatment in c was monitored as a sign of general animal health. Values are mean±s.d. (e) Levels of Puro-incorporated proteins were monitored by immunoblotting. Animals bearing HT29 xenograft tumor were given daily intraperitoneal administration of the prodrug at 150 mg/kg/dose for 3 d, followed by preparation of tissue lysates. The lower panel (anti-α-Tubulin) served as a loading control.
Athymic mice (NCr, female, age 6 weeks, Taconic) were subcutaneously injected with 5×10^5 cells (HCT116 or HT29) into the lower flank, then treatment was initiated when small palpable tumors had developed (>3 mm in diameter). […] Tumor volumes and body weight were monitored daily. […] Data were expressed as mean±s.d. […]

[5] = system: breast cancer cells (MCF-7 and MDA-MB-231); assay: PI staining cytotoxicity, breast cancer cells; assay type: cell-based, human
Procedure: FIG. 17. Selective cytotoxicity by BKAc-Puro on breast cancer cells. Normal mammary gland epithelial cells (Eph4) and breast cancer cells (MCF-7 and MDA-MB-231) were grown and analyzed as in FIG. 10. BF, bright field. PI, fluorescent PI channel. BKAc-Puro can selectively cause cell death in breast cancer cells (MCF-7 and MDA-MB-231) while leaving normal Eph4 cells unharmed.
as §1, with “instruction.” for “instruction. Either 1 μl of DMSO alone or variable concentrations of BKAc-Puro or Puro in DMSO were added to the cell lines seeded at 5×10^4 cells per well in 96-well tissue culture plates in 100 μl of the growth medium, followed by 3-5 d incubation at 37° C. with 5% CO2 atmosphere.”

[6] = system: non-malignant Caco-2 cells; assay: MTS cell viability assay, Caco-2; assay type: cell-based, human
Procedure: FIG. 13. Inhibition of cell viability by BKAc-Puro is presented in dose-response curve format for the same cell lines as in FIG. 8. The cell lines were treated with DMSO or the indicated doses of agent (4.22, 8.44, 16.9, 33.8, 67.5, or 135 μM) for 5 d followed by MTS assay. Data represent mean values of triplicate mesurements±s.d. (n=3). IC50 values were fit by logistic regression.
as §1, with “instruction.” for “instruction. Either 1 μl of DMSO alone or variable concentrations of BKAc-Puro or Puro in DMSO were added to the cell lines seeded at 5×10^4 cells per well in 96-well tissue culture plates in 100 μl of the growth medium, followed by 3-5 d incubation at 37° C. with 5% CO2 atmosphere.”

COc1ccc(C[C@H](NC(=O)[C@H](CCCCNC(C)=O)NC(=O)OC(C)(C)C)C(=O)N[C@H]2[C@@H](O)[C@H](n3cnc4c(N(C)C)ncnc43)O[C@@H]2CO)cc1 [BKAc-Puro, N-[3′-(α-Amino-p-methoxyhydrocinnamamido)-3′-deoxy-N,N-dimethyldenosinyl]-N-α-(t-butoxycarbonyl)-N-ε-acetyl-L-lysineamide] was tested, and the “intensity of Puro incorporation in tissues” value [1] was “substantially greater in tumors compared with normal muscle and kidney”, the “intensity of Puro incorporation in the presence of TSA” value ([2]; TSA 0.5 μM) was “compromised intensity” and the “intensity of Puro incorporation, malignant vs normal and non-malignant cells” value ([2]; immunoblot, Boc-KAc-Puro 16.9 μM 20 h, Puro 2.1 μM 16 h) was “substantially greater in malignant cancer cells”. For the same compound, the “cell proliferation (cell number)” value [3] was “allowed them to proliferate to confluency”, the tumor growth ([4]; 50 and 150 mg/kg/dose daily intraperitoneally for 10 d) was “dose-dependent inhibition of tumor growth” and the “tumor mass vs acidified saline control” value ([4]; P<0.001, 50 and 150 mg/kg, 10 d) was “significantly smaller tumor mass”. The cell death [5] was “selectively caused cell death”, the “highest inactive dose relative to dose of parental Puro effective to these cells” value ([6]; Caco-2, 135 μM BKAc-Puro vs parental Puro) was “more than 30 times” and the IC50 ([6]; MTS, 5 d, sufficient inhibition not achieved with doses up to 135 μM) was > 135 µM.
